Test [1] deals with NLRP3 inflammasome (Homo sapiens, UniProt Q96P20). Description: Inhibition of IL-1β release, NLRP3 inflammasome activation assay in HMDM. It counts as cell-based. The procedure, abridged:
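Primary human monocyte-derived macrophages from CD14+ buffy-coat monocytes, seeded at 1×10^5/ml. Compound added in serum-free medium 30 min before NLRP3 stimulation (ATP, nigericin, LeuLeu-OMe or MSU). Cytokine in supernatants measured by ELISA or AlphaLISA; cell death by LDH release relative to full lysis.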

For test [2], the target named is NLRP3 inflammasome (Mus musculus, UniProt Q8R4B8). Description: Inhibition of IL-1β release, NLRP3 inflammasome activation assay in BMDM. It counts as cell-based. Here is the method:
The following assays can be used to determine inhibitory activity of test compounds on the NLRP3 inflammasome using common stimuli such as adenosine triphosphate, nigericin, LeuLeu-OMe or monosodium urate crystals (MSU).
Mouse bone marrow-derived macrophages (BMDM) were derived from bone marrow progenitors isolated from the femurs and tibias of C57BL/6 mice.
BMDM are seeded at 1×10^5/ml. The following day the overnight medium is replaced and cells are stimulated with Ultrapure lipopolysaccharide from Escherichia coli K12 strain (InvivoGen) for 3 h. Medium is removed and replaced with serum free medium (SFM) containing test compound 30 min prior to NLRP3 stimulation. […] ATP can be sourced from Sigma Aldrich, nigericin and MSU from Invivogen and LeuLeu-Ome from Chem-Impex International.
For ELISA and cell death assays cells are seeded in 96 well plates. Supernatants are removed and analysed using ELISA kits according to the manufacturer's instructions (DuoSet® R&D Systems, ReadySetGo!® eBioscience, BD OptEIA™, or Perkin Elmer AlphaLISA®). Cell death is assessed by measurement of LDH release relative to a 100% cell lysis control using the CytoTox96® non-radioactive cytotoxicity assay (Promega).

[3] abbreviates: inhibition of IL-1β release, class symbols, read-out: Avg. IL-1β IC50 HMDM.
[4] abbreviates: inhibition of IL-1β release, class symbols, read-out: Avg. IL-1β IC50 Murine BMDM.
[5] abbreviates: inhibition of IL-1β release, numeric bounds, read-out: Avg. IL-1β IC50 HMDM.
Setting [6] is: inhibition of IL-1β release, numeric bounds, read-out: Avg. IL-1β IC50 Murine BMDM.
The mark [7] stands for this setting: commercial compounds (Table 9), read-out: HMDM IC50 vs NLRP3.
Setting [8] is: commercial compounds (Table 9), read-out: BMDM IC50 vs NLRP3.
[9] abbreviates: select compounds of the first aspect (Table 10), read-out: HMDM IC50 vs NLRP3.
Setting [10] is: select compounds of the first aspect (Table 10), read-out: BMDM IC50 vs NLRP3.

Molecules are shown by their SMILES. Like-named read-outs stand apart in the source and are kept apart here. Bounds are passed on as bounds.

In general, IC50 refers to the point on the concentration scale where inhibition reaches its midpoint.

NLRP3 inflammasome (Mus musculus, UniProt Q8R4B8), sequence (Q8R4B8 whole entry): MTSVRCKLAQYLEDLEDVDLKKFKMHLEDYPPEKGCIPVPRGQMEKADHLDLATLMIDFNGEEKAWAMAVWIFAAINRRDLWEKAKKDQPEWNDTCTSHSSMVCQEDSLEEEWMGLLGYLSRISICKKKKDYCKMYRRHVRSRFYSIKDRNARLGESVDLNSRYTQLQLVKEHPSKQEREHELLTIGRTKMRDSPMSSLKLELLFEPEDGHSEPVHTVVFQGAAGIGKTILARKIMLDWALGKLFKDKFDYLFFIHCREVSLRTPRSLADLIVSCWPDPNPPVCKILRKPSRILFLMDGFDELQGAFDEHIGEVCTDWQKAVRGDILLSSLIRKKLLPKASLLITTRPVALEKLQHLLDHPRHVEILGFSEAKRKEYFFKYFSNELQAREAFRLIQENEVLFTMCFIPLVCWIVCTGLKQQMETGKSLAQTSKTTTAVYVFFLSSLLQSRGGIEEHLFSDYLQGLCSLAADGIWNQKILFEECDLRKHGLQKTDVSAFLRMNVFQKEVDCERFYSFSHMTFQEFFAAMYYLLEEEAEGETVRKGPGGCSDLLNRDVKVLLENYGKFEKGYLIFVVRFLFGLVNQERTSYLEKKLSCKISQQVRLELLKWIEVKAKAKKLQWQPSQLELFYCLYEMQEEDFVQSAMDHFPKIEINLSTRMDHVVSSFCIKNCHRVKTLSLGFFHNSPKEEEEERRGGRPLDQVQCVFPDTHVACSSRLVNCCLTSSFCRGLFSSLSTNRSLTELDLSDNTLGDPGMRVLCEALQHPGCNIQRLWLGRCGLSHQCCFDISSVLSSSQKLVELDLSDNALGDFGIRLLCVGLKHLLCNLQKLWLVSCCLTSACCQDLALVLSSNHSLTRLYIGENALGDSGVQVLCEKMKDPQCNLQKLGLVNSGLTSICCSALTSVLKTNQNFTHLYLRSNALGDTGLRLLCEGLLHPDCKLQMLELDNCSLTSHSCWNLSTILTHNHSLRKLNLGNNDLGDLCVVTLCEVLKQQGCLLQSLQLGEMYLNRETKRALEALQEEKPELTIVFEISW
NLRP3 inflammasome (Homo sapiens, UniProt Q96P20), sequence (Q96P20 whole entry): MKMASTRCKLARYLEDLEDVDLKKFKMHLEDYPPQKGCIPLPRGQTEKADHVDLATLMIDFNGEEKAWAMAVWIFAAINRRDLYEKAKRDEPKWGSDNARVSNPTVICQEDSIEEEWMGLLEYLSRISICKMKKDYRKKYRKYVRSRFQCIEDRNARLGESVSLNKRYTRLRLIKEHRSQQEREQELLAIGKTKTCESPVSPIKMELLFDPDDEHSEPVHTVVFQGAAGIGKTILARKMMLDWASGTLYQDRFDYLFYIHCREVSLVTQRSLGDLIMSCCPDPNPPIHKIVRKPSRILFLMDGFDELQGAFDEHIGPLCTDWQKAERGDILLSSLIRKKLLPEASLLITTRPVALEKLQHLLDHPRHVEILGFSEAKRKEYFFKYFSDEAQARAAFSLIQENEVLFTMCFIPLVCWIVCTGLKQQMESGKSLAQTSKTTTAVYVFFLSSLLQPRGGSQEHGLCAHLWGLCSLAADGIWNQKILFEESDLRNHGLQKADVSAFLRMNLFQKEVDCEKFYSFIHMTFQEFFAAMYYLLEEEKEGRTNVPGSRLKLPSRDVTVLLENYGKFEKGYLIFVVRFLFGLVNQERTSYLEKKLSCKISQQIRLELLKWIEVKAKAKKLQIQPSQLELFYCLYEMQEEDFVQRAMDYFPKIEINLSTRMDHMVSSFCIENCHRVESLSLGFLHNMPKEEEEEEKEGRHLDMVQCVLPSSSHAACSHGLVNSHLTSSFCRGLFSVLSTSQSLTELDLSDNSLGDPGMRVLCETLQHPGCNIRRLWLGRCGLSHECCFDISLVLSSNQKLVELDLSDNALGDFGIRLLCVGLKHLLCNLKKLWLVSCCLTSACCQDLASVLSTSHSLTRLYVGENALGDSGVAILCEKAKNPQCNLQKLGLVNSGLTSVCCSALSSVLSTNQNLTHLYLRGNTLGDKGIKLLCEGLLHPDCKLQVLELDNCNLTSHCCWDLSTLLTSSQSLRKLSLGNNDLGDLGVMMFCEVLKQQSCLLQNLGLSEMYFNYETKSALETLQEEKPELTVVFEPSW

Turning to `O=C(CCCC[C@@H]1SC[C@@H]2NC(=O)N[C@@H]21)NCCCn1cc(CCC(=O)Nc2cccc(S(=O)(=O)NC(=O)Nc3c4c(cc5c3CCC5)CCC4)c2)nn1` [N-(3-(4-(3-((3-(N-((1,2,3,5,6,7-hexahydro-s-indacen-4-yl)carbamoyl)sulfamoyl)phenyl)amino)-3-oxopropyl)-1H-1,2,3-triazol-1-yl)propyl)-5-((3aS,4S,6aR)-2-oxohexahydro-1H-thieno[3,4-d]imidazol-4-yl)pentanamide], the IC50 at NLRP3 inflammasome [1] (setting [3]) and at NLRP3 inflammasome [2] (setting [4]) was under 10 µM throughout.

Consider `Cc1cc(C(=O)NCCc2ccc(S(=O)(=O)NC(=O)Nc3c4c(cc5c3CCC5)CCC4)cc2)no1` [N-(4-(N-((1,2,3,5,6,7-hexahydro-s-indacen-4-yl)carbamoyl)sulfamoyl)phenethyl)-5-methylisoxazole-3-carboxamide], for which the IC50 on NLRP3 inflammasome [1] (setting [3]) and at NLRP3 inflammasome [2] (setting [4]) was under 1 µM in each case.

`CC(C)n1cc(S(=O)(=O)NC(=O)Nc2c3c(cc4c2CCC4)CCC3)nn1` [N-((1,2,3,5,6,7-hexahydro-s-indacen-4-yl)carbamoyl)-1-isopropyl-1H-1,2,3-triazole-4-sulfonamide]: the IC50 on NLRP3 inflammasome [1] (setting [3]) is under 0.1 µM; on NLRP3 inflammasome [2] (setting [4]), under 1 µM.

`O=C(Nc1c2c(cc3c1CCC3)CCC2)NS(=O)(=O)c1ccc2c(c1)CCC2` [N-((1,2,3,5,6,7-hexahydro-s-indacen-4-yl)carbamoyl)-2,3-dihydro-1H-indene-5-sulfonamide]: the values for the IC50 on NLRP3 inflammasome [1] (setting [3]) and on NLRP3 inflammasome [2] (setting [4]) were under 10 µM and under 0.1 µM, respectively.

`O=C(Nc1c2c(cc3c1CCC3)CCC2)NS(=O)(=O)c1cccc(OC(F)(F)F)c1` [N-((1,2,3,5,6,7-hexahydro-s-indacen-4-yl)carbamoyl)-3-(trifluoromethoxy)benzenesulfonamide]: the IC50 on NLRP3 inflammasome [1] (setting [3]) and at NLRP3 inflammasome [2] (setting [4]) was under 1 µM throughout.

Consider `O=C(Nc1c2c(cc3c1CCC3)CCC2)NS(=O)(=O)c1cccc(C(F)(F)F)c1` [N-((1,2,3,5,6,7-hexahydro-s-indacen-4-yl)carbamoyl)-3-(trifluoromethyl)benzenesulfonamide], for which the half-maximal inhibitory concentration (IC50) was under 0.1 µM on NLRP3 inflammasome [1] (setting [3]) and under 1 µM at NLRP3 inflammasome [2] (setting [4]).

Consider `COc1ccc2c(c1)C(=O)N(CCc1ccc(S(=O)(=O)NC(=O)Nc3c4c(cc5c3CCC5)CCC4)cc1)C(=O)C2(C)C` [N-((1,2,3,5,6,7-hexahydro-s-indacen-4-yl)carbamoyl)-4-(2-(7-methoxy-4,4-dimethyl-1,3-dioxo-3,4-dihydroisoquinolin-2(1H)-yl)ethyl)benzenesulfonamide], for which the IC50 at NLRP3 inflammasome [1] (setting [3]) is under 10 µM; on NLRP3 inflammasome [2] (setting [4]), under 1 µM.

For `O=C(Nc1c2c(cc3c1CCC3)CCC2)NS(=O)(=O)c1ccc(CCNc2ccc([N+](=O)[O-])c3nonc23)cc1` [N-((1,2,3,5,6,7-hexahydro-s-indacen-4-yl)carbamoyl)-4-(2-((7-nitrobenzo[c][1,2,5]oxadiazol-4-yl)amino)ethyl)benzenesulfonamide], the IC50 on NLRP3 inflammasome [1] (setting [3]) and on NLRP3 inflammasome [2] (setting [4]) was under 1 µM in each case.

With `C=C(C)c1coc(S(=O)(=O)NC(=O)Nc2c3c(cc4c2CCC4)CCC3)c1` [N-((1,2,3,5,6,7-hexahydro-s-indacen-4-yl)carbamoyl)-4-(prop-1-en-2-yl)furan-2-sulfonamide], the IC50 at NLRP3 inflammasome [1] (setting [3]) and at NLRP3 inflammasome [2] (setting [4]) was under 1 µM in each case.

As for `CC(C)(O)c1coc(S(=O)(=O)NC(=O)Nc2ccc(C(F)(F)F)cc2C(F)(F)F)c1` [N-((2,4-bis(trifluoromethyl)phenyl)carbamoyl)-4-(2-hydroxypropan-2-yl)furan-2-sulfonamide], the values for the concentration for half-maximal inhibition (IC50) at NLRP3 inflammasome [1] (setting [3]) and at NLRP3 inflammasome [2] (setting [4]) were under 10 µM and under 1 µM, respectively.

Consider `CC(C)(O)c1coc(S(=O)(=O)NC(=O)Nc2cc(C(F)(F)F)ccc2C(F)(F)F)c1` [N-((2,5-bis(trifluoromethyl)phenyl)carbamoyl)-4-(2-hydroxypropan-2-yl)furan-2-sulfonamide], for which the values for the concentration for half-maximal inhibition (IC50) on NLRP3 inflammasome [1] (setting [3]) and on NLRP3 inflammasome [2] (setting [4]) were under 10 µM and under 1 µM, respectively.

Take `Cc1cc(C)nc(NC(=O)NS(=O)(=O)c2cc(C(C)(C)O)co2)n1` [N-((4,6-dimethylpyrimidin-2-yl)carbamoyl)-4-(2-hydroxypropan-2-yl)furan-2-sulfonamide]: the IC50 was over 50 µM at NLRP3 inflammasome [1] (setting [5]) and over 10 µM at NLRP3 inflammasome [2] (setting [6]).

As to `CC(C)n1ccc(S(=O)(=O)NC(=O)Nc2c(C3CC3)cc(Cl)cc2C2CC2)n1` [N-((4-chloro-2,6-dicyclopropylphenyl)carbamoyl)-1-isopropyl-1H-pyrazole-3-sulfonamide], the IC50 at NLRP3 inflammasome [1] (setting [3]) and on NLRP3 inflammasome [2] (setting [4]) was under 1 µM each time.

In the case of `CCc1cc(Cl)cc(CC)c1NC(=O)NS(=O)(=O)c1ccn(C(C)C)n1` [N-((4-chloro-2,6-diethylphenyl)carbamoyl)-1-isopropyl-1H-pyrazole-3-sulfonamide], the IC50 on NLRP3 inflammasome [1] (setting [3]) and at NLRP3 inflammasome [2] (setting [4]) was under 10 µM each time.

On to `CC(C)c1cc(Cl)cc(C(C)C)c1NC(=O)NS(=O)(=O)c1cc2ccccc2s1` [N-((4-chloro-2,6-diisopropylphenyl)carbamoyl)benzo[b]thiophene-2-sulfonamide], for which the IC50 is under 0.1 µM at NLRP3 inflammasome [1] (setting [3]) and under 1 µM at NLRP3 inflammasome [2] (setting [4]).

`CC(C)c1cc(Cl)cc(C(C)C)c1NC(=O)NS(=O)(=O)c1cc2ccccc2o1` [N-((4-chloro-2,6-diisopropylphenyl)carbamoyl)benzofuran-2-sulfonamide]: the IC50 on NLRP3 inflammasome [1] (setting [3]) and at NLRP3 inflammasome [2] (setting [4]) was under 0.1 µM each time.

As to `COc1cc(Cl)cc(OC)c1NC(=O)NS(=O)(=O)c1ccn(C(C)C)n1` [N-((4-chloro-2,6-dimethoxyphenyl)carbamoyl)-1-isopropyl-1H-pyrazole-3-sulfonamide], the IC50 on NLRP3 inflammasome [1] (setting [3]) was under 50 µM; on NLRP3 inflammasome [2] (setting [6]), over 10 µM.

On to `Cc1cc(Cl)cc(C)c1NC(=O)NS(=O)(=O)c1ccn(C(C)C)n1` [N-((4-chloro-2,6-dimethylphenyl)carbamoyl)-1-isopropyl-1H-pyrazole-3-sulfonamide], for which the half-inhibitory concentration (IC50) was under 10 µM at NLRP3 inflammasome [1] (setting [3]) and over 10 µM at NLRP3 inflammasome [2] (setting [6]).

With `Cc1cc(Cl)cc(C(F)(F)F)c1NC(=O)NS(=O)(=O)c1ccn(C(C)C)n1` [N-((4-chloro-2-methyl-6-(trifluoromethyl)phenyl)carbamoyl)-1-isopropyl-1H-pyrazole-3-sulfonamide], the figures for the half-inhibitory concentration (IC50) on NLRP3 inflammasome [1] (setting [3]) and on NLRP3 inflammasome [2] (setting [6]) were under 10 µM and over 10 µM, respectively.

Consider `O=C(Nc1ccc(Cl)cc1)NS(=O)(=O)c1ccc2c(c1)CCC2` [N-((4-chlorophenyl)carbamoyl)-2,3-dihydro-1H-indene-5-sulfonamide], for which the IC50 is over 100 µM at NLRP3 inflammasome [1] (setting [5]) and over 10 µM on NLRP3 inflammasome [2] (setting [6]).

`CC(C)n1ccc(S(=O)(=O)NC(=O)Nc2c(C3CC3)cc(Cl)c3c2CCC3)n1` [N-((7-chloro-5-cyclopropyl-2,3-dihydro-1H-inden-4-yl)carbamoyl)-1-isopropyl-1H-pyrazole-3-sulfonamide]: the half-inhibitory concentration (IC50) on NLRP3 inflammasome [1] (setting [3]) and at NLRP3 inflammasome [2] (setting [4]) was under 1 µM each time.

Regarding `CC(C)(O)c1coc(S(=O)(=O)NC(=O)Nc2c3c(c(Br)c4c2CCC4)CCC3)c1` [N-((8-bromo-1,2,3,5,6,7-hexahydro-s-indacen-4-yl)carbamoyl)-4-(2-hydroxypropan-2-yl)furan-2-sulfonamide], the 50% inhibitory concentration (IC50) on NLRP3 inflammasome [1] (setting [3]) and at NLRP3 inflammasome [2] (setting [4]) was under 0.1 µM in each case.

Consider `CC(C)(O)c1coc(S(=O)(=O)NC(=O)Nc2c3c(c(Cl)c4c2CCC4)CCC3)c1` [N-((8-chloro-1,2,3,5,6,7-hexahydro-s-indacen-4-yl)carbamoyl)-4-(2-hydroxypropan-2-yl)furan-2-sulfonamide], for which the IC50 on NLRP3 inflammasome [1] (setting [3]) and at NLRP3 inflammasome [2] (setting [4]) was under 0.1 µM each time.

Take `O=C(Nc1ccc2ncccc2c1)NS(=O)(=O)c1cccc(C2(C(F)(F)F)N=N2)c1` [N-(quinolin-6-ylcarbamoyl)-3-(3-(trifluoromethyl)-3H-diazirin-3-yl)benzenesulfonamide]: the IC50 was over 50 µM at NLRP3 inflammasome [1] (inhibition of IL-1β release, uM, read-out: Avg. IL-1β IC50 HMDM) and over 50 µM on NLRP3 inflammasome [2] (inhibition of IL-1β release, uM, read-out: Avg. IL-1β IC50 Murine BMDM).

Turning to `NS(=O)(=O)c1cccc(S(=O)(=O)NC(=O)Nc2c3c(cc4c2CCC4)CCC3)c1` [N^1-(1,2,3,5,6,7-Hexahydros-indacen-4-ylcarbamoyl)benzene-1,3-disulfonamide], the half-inhibitory concentration (IC50) at NLRP3 inflammasome [1] (setting [3]) and on NLRP3 inflammasome [2] (setting [4]) was under 0.1 µM throughout.

Take `O=C(Nc1ccc(Cl)cc1)NS(=O)(=O)c1ccc2c(c1)CCC2` [Sulofenur, reference compound]: the figures for the IC50 on NLRP3 inflammasome [1] (setting [7]) and at NLRP3 inflammasome [2] (setting [8]) were over 100 µM and over 10 µM, respectively.

In the case of `CCCCNC(=O)NS(=O)(=O)c1ccc(C)cc1` [Tolbutamide, reference compound], the IC50 at NLRP3 inflammasome [1] (setting [7]) and at NLRP3 inflammasome [2] (setting [8]) was over 200 µM throughout.

On to `COc1ccc(Cl)cc1C(=O)NCCc1ccc(S(=O)(=O)NC(=O)Nc2c3c(cc4c2CCC4)CCC3)cc1` [drawing 358], for which the IC50 was 0.14 µM at NLRP3 inflammasome [1] (setting [9]) and 0.24 µM at NLRP3 inflammasome [2] (setting [10]).

As for `CCC1=C(C)CN(C(=O)NCCc2ccc(S(=O)(=O)NC(=O)Nc3c4c(cc5c3CCC5)CCC4)cc2)C1=O` [drawing 360], the concentration for half-maximal inhibition (IC50) at NLRP3 inflammasome [1] (setting [9]) amounted to 0.65 µM; on NLRP3 inflammasome [2] (setting [10]), 0.22 µM.

Values taken from patent publication US10538487B2, “Sulfonylureas and related compounds and use of same” (priority 2015, dated 2020).
